Experimental data reported in patent US9512175B2, “Macrocyclic inhibitors of flaviviridae viruses” (Gilead Sciences, Inc., priority 2012, dated 2016).
pIC50: −log10 of the molar value. Where two headings read alike, the source gives them in different places.

Assays:
[1] = system: HCV replicon (Replicon 1a); test: anti-HCV activity in Huh-7 cell line harboring a HCV replicon (Replicon 1a); assay type: cell-based; details: for inhibition at 1 µM: Hepatitis C virus, Huh-7, 72 h
cyclophilin A = cyclophilin A (Homo sapiens, UniProt P62937); test: Cyclophilin A TR-FRET competitive binding assay; details: IC50 ranges, competition with CsA-Cy5 for His-tagged CypA, two-hour incubation
Sequence of cyclophilin A (P62937 whole entry, species assumed): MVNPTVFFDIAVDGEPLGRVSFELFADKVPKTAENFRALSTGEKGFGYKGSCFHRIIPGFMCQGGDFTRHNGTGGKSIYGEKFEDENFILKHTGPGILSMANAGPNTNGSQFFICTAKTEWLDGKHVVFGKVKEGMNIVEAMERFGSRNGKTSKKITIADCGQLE
Description: Cyclophilin A TR-FRET Competitive Binding Assay
Inhibitor potency was measured using a competitive binding assay with a time-resolved fluorescence resonance energy transfer (TR-FRET) readout. […] An IC50 value was calculated using a four-parameter logistic fit.

[2] = read-out: Replicon 1a % inhibition at 1 μM, 1 μM, human hepatoma Huh-7 HCV replicon cells, 3 days, luciferase readout
[3] = read-out: Replicon 1a % inhibition at 1 μM

Row | SMILES | inhibition at 1 µM [1, 2] | pIC50 (cyclophilin A; read-out: TR-FRET) | inhibition at 1 µM [1, 3] | pIC50 (cyclophilin A; TR-FRET) | Replicon 1a % inhibition at 1 μM ([1]; 1 μM, human hepatoma Huh-7 HCV replicon cells, 3 days, luciferase readout)
1 | CC(C)[C@@H]1NC(=O)C2(/C=C/c3ccc4ccc(nc4c3)[C@@H](C)OC(=O)[C@@H]3CCCN(N3)C(=O)[C@H](C)NC1=O)COC2 [Compound 73] | 94% | > 7.00 | – | – | –
2 | CC(C)[C@@H]1NC(=O)C(CO)(CO)/C=C/c2ccc3ccc(nc3c2)[C@@H](C)OC(=O)[C@@H]2CCCN(N2)C(=O)[C@H](C)NC1=O [Compound 76] | 63% | > 7.00 | – | – | –
3 | CC(C)[C@@H]1NC(=O)[C@@](C)(COCC[Si](C)(C)C)/C=C/c2ccc3ccc(nc3c2)[C@@H](C)OC(=O)[C@@H]2CCCN(N2)C(=O)[C@H](C)NC1=O [Compound 77] | – | – | 99% | > 7.00 | –
4 | CC(C)[C@@H]1NC(=O)[C@@](C)(CO)/C=C/c2ccc3ccc(nc3c2)[C@@H](C)OC(=O)[C@@H]2CCCN(N2)C(=O)[C@H](C)NC1=O [Compound 78] | – | – | 99% | > 7.00 | –
5 | CC(C)[C@@H]1NC(=O)[C@](C)(COCC[Si](C)(C)C)/C=C/c2ccc3ccc(nc3c2)[C@@H](C)OC(=O)[C@@H]2CCCN(N2)C(=O)[C@H](C)NC1=O [Compound 79] | – | – | 96% | > 7.00 | –
6 | CC(C)[C@@H]1NC(=O)[C@](C)(CO)/C=C/c2ccc3ccc(nc3c2)[C@@H](C)OC(=O)[C@@H]2CCCN(N2)C(=O)[C@H](C)NC1=O [Compound 80] | – | – | 97% | > 7.00 | –
7 | CC(C)[C@@H]1NC(=O)[C@H](CC2CC2)/C=C/c2ccc3ccc(nc3c2)[C@@H](C)OC(=O)[C@@H]2CCCN(N2)C(=O)[C@H](C)NC1=O [Compound 81] | – | – | 100% | > 7.00 | –
8 | CC(C)[C@@H]1NC(=O)C(C)(C)/C=C/c2ccc3ccc(nc3c2)[C@@H](C)OC(=O)[C@@H]2CCCN(N2)C(=O)[C@H](CO)NC1=O [Compound 82] | 99% | > 7.00 | – | – | –
9 | CC(C)[C@@H]1NC(=O)[C@@H]([C@@H](C)O)/C=C/c2ccc3ccc(nc3c2)[C@@H](C)OC(=O)[C@@H]2CCCN(N2)C(=O)[C@H](C)NC1=O [Compound 83] | 99% | > 7.00 | – | – | –
10 | CC(C)[C@H]1C(=O)N[C@@H](C)C(=O)N2CCC[C@H](N2)C(=O)N[C@H](C)c2ccc3ccc(cc3n2)/C=C/C2(C)CCN1C2=O [Compound 84] | 63% | > 7.00 | – | – | –
11 | CC(C)[C@@H]1NC(=O)C(C)(C(C)O)/C=C/c2ccc3ccc(nc3c2)[C@@H](C)OC(=O)[C@@H]2CCCN(N2)C(=O)[C@H](C)NC1=O (stereo partly drawn) [Compound 89] | 99% | > 7.00 | – | – | –
12 | CC(C)[C@@H]1NC(=O)C(C)(C(C)O)/C=C/c2ccc3ccc(nc3c2)[C@@H](C)OC(=O)[C@@H]2CCCN(N2)C(=O)[C@H](C)NC1=O (stereo partly drawn) [Compound 90] | – | > 7.00 | – | – | 100%
13 | CC(C)[C@@H]1NC(=O)C(C)(C)/C=C/c2ccc3ccc(nc3c2)[C@@H](C)OC(=O)[C@@H]2CCCN(N2)C(=O)[C@H]([C@@H](C)O)NC1=O [Compound 91] | 99% | > 7.00 | – | – | –
14 | CC(C)[C@@H]1NC(=O)C(C)(C)/C=C/c2ccc3ccc(nc3c2)[C@@H](C)OC(=O)[C@@H]2CCCN(N2)C(=O)[C@H](CC(=O)OC(C)(C)C)NC1=O [Compound 92] | 100% | > 7.00 | – | – | –
15 | CC(C)[C@@H]1NC(=O)C(C)(C)/C=C/c2ccc3ccc(nc3c2)[C@@H](C)OC(=O)[C@@H]2CCCN(N2)C(=O)[C@H](CC(=O)O)NC1=O [Compound 93] | 68% | > 7.00 | – | – | –
16 | CC(C)[C@@H]1NC(=O)C(C)(C)/C=C/c2ccc3ccc(nc3c2)[C@@H](C)OC(=O)[C@@H]2CCCN(N2)C(=O)[C@H](Cc2cn(C(c3ccccc3)(c3ccccc3)c3ccccc3)cn2)NC1=O [Compound 94] | 96% | > 7.00 | – | – | –
17 | CC(C)[C@@H]1NC(=O)C(C)(C)/C=C/c2ccc3ccc(nc3c2)[C@@H](C)OC(=O)[C@@H]2CCCN(N2)C(=O)[C@H](Cc2c[nH]cn2)NC1=O [Compound 95] | 68% | > 7.00 | – | – | –
18 | CC(C)[C@@H]1NC(=O)C(C)(C)/C=C/c2ccc3cnc(nc3c2)[C@@H](C)OC(=O)[C@@H]2CCCN(N2)C(=O)[C@H](C)NC1=O [Compound 96] | 100% | > 7.00 | – | – | –
19 | CC(C)[C@@H]1NC(=O)C(C)(C)/C=C/c2ccc3ccc(nc3c2)[C@@H](C)OC(=O)[C@@H]2CCCN(N2)C(=O)[C@H](CC(=O)N(C)C)NC1=O [Compound 97] | 98% | > 7.00 | – | – | –
20 | CC(C)[C@@H]1NC(=O)C(C)(C)/C=C/c2ccc3ccc(nc3c2)[C@@H](C)OC(=O)[C@@H]2CCCN(N2)C(=O)[C@H](CC(=O)N2CCCCC2)NC1=O [Compound 98] | – | > 7.00 | 95% | – | –
21 | CC(C)[C@@H]1NC(=O)C(C)(C)/C=C/c2ccc3ccc(nc3c2)[C@@H](C)OC(=O)[C@@H]2CCCN(N2)C(=O)[C@H](CC(=O)N2CCCC2)NC1=O [Compound 99] | 96% | > 7.00 | – | – | –

Row | SMILES | inhibition at 1 µM [1, 2] | pIC50 (cyclophilin A; read-out: TR-FRET) | inhibition at 1 µM [1, 3] | pIC50 (cyclophilin A; TR-FRET) | Replicon 1a % inhibition at 1 μM ([1]; 1 μM, human hepatoma Huh-7 HCV replicon cells, 3 days, luciferase readout)
22 | CC(C)[C@@H]1NC(=O)C(C)(C(C)(C)O)/C=C/c2ccc3ccc(nc3c2)[C@@H](C)OC(=O)[C@@H]2CCCN(N2)C(=O)[C@H](C)NC1=O (stereo partly drawn) [Compound 101] | 99% | > 7.00 | – | – | –
23 | CC(C)[C@@H]1NC(=O)[C@@](C)(CO)/C=C/c2ccc3ccc(cc3c2)[C@@H](C)OC(=O)[C@@H]2CCCN(N2)C(=O)[C@H](C)NC1=O [Compound 104] | 98% | > 7.00 | – | – | –
24 | CC(C)[C@@H]1NC(=O)C(C)(C)/C=C/c2ccc3ccc(nc3c2)[C@@H](C)OC(=O)[C@@H]2CCCN(N2)C(=O)[C@H](COC(F)F)NC1=O [Compound 106] | 99% | > 7.00 | – | – | –
25 | COC[C@@]1(C)/C=C/c2ccc3ccc(nc3c2)[C@@H](C)OC(=O)[C@@H]2CCCN(N2)C(=O)[C@H](C)NC(=O)[C@H](C(C)C)NC1=O [Compound 107] | 100% | > 7.00 | – | – | –
26 | CC(C)[C@@H]1NC(=O)C(C)(C)/C=C/c2ccc3ccc(nc3c2)[C@@H](C)OC(=O)[C@@H]2CCCN(N2)C(=O)[C@H](Cc2cscn2)NC1=O [Compound 110] | 100% | > 7.00 | – | – | –
27 | CC(C)[C@@H]1NC(=O)C(C)(C)/C=C/c2ccc3ccc(nc3c2)[C@@H](C)NC(=O)[C@@H]2CCCN(N2)C(=O)[C@H](C)NC1=O [Compound 111] | 87% | > 7.00 | – | – | –
28 | CC(C)[C@@H]1NC(=O)C(C)(C)/C=C/c2ccc3ccc(nc3c2)[C@@H](C)OC(=O)[C@@H]2CCCN(N2)C(=O)[C@H](COCC2(C)COC2)NC1=O [Compound 114] | 99% | > 7.00 | – | – | –
29 | CC(C)[C@@H]1NC(=O)C(C)(C)/C=C/c2ccc3ccc(nc3c2)C(C)N(C)C(=O)[C@@H]2CCCN(N2)C(=O)[C@H](C)NC1=O (stereo partly drawn) [Compound 115] | 92% | > 7.00 | – | – | –
30 | CC(C)[C@@H]1NC(=O)C(C)(C)/C=C/c2ccc3ccc(nc3c2)[C@@H](C)OC(=O)[C@]2(C)CCCN(N2)C(=O)[C@H](C)NC1=O [Compound 119] | 98% | > 7.00 | – | – | –
31 | CC(C)[C@@H]1NC(=O)C(C)(C)/C=C/c2ccc3ccc(nc3c2)[C@@H](C)NC(=O)[C@@H]2CCCN(N2)C(=O)[C@H](Cc2ccccc2)NC1=O [Compound 120] | 91% | > 7.00 | – | – | –
32 | CC(C)[C@@H]1NC(=O)C2(/C=C/c3ccc4ccc(nc4c3)[C@@H](C)NC(=O)[C@@H]3CCCN(N3)C(=O)[C@H](C)NC1=O)CCC(F)(F)CC2 [Compound 122] | 96% | > 7.00 | – | – | –
33 | CC(C)[C@@H]1NC(=O)C2(/C=C/c3ccc4ccc(nc4c3)[C@@H](C)OC(=O)[C@@H]3CCCN(N3)C(=O)[C@H](C)NC1=O)CCOC(C)(C)C2 (stereo partly drawn) [Compound 123] | 100% | > 7.00 | – | – | –
34 | CC[C@H](C)[C@@H]1NC(=O)C(C)(C)/C=C/c2ccc3ccc(nc3c2)[C@@H](C)OC(=O)[C@@H]2CCCN(N2)C(=O)[C@H](C)NC1=O [Compound 125] | 100% | > 7.00 | – | – | –
35 | CC(C)[C@@H]1NC(=O)C2(/C=C/c3ccc4ccc(nc4c3)[C@@H](C)OC(=O)[C@@H]3CCCN(N3)C(=O)[C@H](C)NC1=O)CCN(C(=O)OC(C)(C)C)CC2 [Compound 126] | 100% | > 7.00 | – | – | –
36 | CC(C)[C@@H]1NC(=O)C2(/C=C/c3ccc4ccc(nc4c3)[C@@H](C)OC(=O)[C@@H]3CCCN(N3)C(=O)[C@H](C)NC1=O)CCNCC2 [Compound 127] | 2% | > 7.00 | – | – | –
37 | CCN1CCC2(/C=C/c3ccc4ccc(nc4c3)[C@@H](C)OC(=O)[C@@H]3CCCN(N3)C(=O)[C@H](C)NC(=O)[C@H](C(C)C)NC2=O)CC1 [Compound 129] | – | > 7.00 | 96% | – | –
38 | CC(C)[C@@H]1NC(=O)C2(/C=C/c3ccc4ccc(nc4c3)[C@@H](C)OC(=O)[C@@H]3CCCN(N3)C(=O)[C@H](C)NC1=O)CCN(S(C)(=O)=O)CC2 [Compound 130] | 100% | > 7.00 | – | – | –
39 | CC(C)[C@@H]1NC(=O)C2(/C=C/c3ccc4ccc(nc4c3)[C@@H](C)OC(=O)[C@@H]3CCCN(N3)C(=O)[C@H](C)NC1=O)CCN(CC#N)CC2 [Compound 131] | – | > 7.00 | 77% | – | –
40 | COC(=O)N1CCC2(/C=C/c3ccc4ccc(nc4c3)[C@@H](C)OC(=O)[C@@H]3CCCN(N3)C(=O)[C@H](C)NC(=O)[C@H](C(C)C)NC2=O)CC1 [Compound 132] | – | > 7.00 | 100% | – | –
41 | CC(C)[C@@H]1NC(=O)C2(/C=C/c3ccc4ccc(nc4c3)[C@@H](C)OC(=O)[C@@H]3CCCN(N3)C(=O)[C@H](C)NC1=O)CCN(C(=O)N1CCCC1)CC2 [Compound 133] | 98% | > 7.00 | – | – | –
42 | CC(C)[C@@H]1NC(=O)C2(/C=C/c3ccc4ccc(nc4c3)[C@@H](C)OC(=O)[C@@H]3CCCN(N3)C(=O)[C@H](C)NC1=O)CCN(S(=O)(=O)CC1CC1)CC2 [Compound 134] | 99% | > 7.00 | – | – | –
